Source: patent US7691805B2, “Antimicrobial compounds” (Neobiotics AB, priority 2004, dated 2010)
Non-standard residues stand in square brackets, D forms with d. No end group written: not given here. dPhg = N[C@@H](C(=O)O)c1ccccc1; Phg = N[C@H](C(=O)O)c1ccccc1; code Z = not defined here; Orn = NCCC[C@H](N)C(=O)O; Mpa = O=C(O)CCS

Columns and labels:
bacteria = test: Anti-bacterial activity (tables of particularly interesting compounds); format: cell-based; design: key: + indicates that the compound show effects
Streptococcus: group C = test: Agar well diffusion; settings: 40 ul of 1 mg/ml in DMSO per well
Streptococcus: group A = test: Agar well diffusion; settings: 40 ul of 1 mg/ml in DMSO per well
S. pneumoniae = test: Agar well diffusion; settings: 40 ul of 1 mg/ml in DMSO per well
MRSA = test: Growth inhibition of clinical isolates; settings: approximately 100 strains of MRSA, several with additional resistance markers
Streptococcus: group G = test: Agar well diffusion; settings: 40 ul of 1 mg/ml in DMSO per well
[1] = tested on: E. coli and other Gram-negatives; test: Agar well diffusion; settings: E. coli and other Gram-negatives; 40 ul of 1 mg/ml in DMSO per well
Streptococcus: group B = test: Agar well diffusion; settings: 40 ul of 1 mg/ml in DMSO per well
[2] = tested on: α-haemolytic Streptococci; test: Agar well diffusion; settings: 40 ul of 1 mg/ml in DMSO per well
[3] = tested on: HSV-1 F (Herpes Simplex Virus); test: Antiviral inhibition analysis and plaque counting test in GMK AH 1 cells; format: cell-based; settings: 0.4 mM in 1% DMSO; analysed in the same way as Cystapep 1
[4] = tested on: CNS incl. resistant and multiresistant MRSE; test: Agar well diffusion; settings: 40 ul of 1 mg/ml in DMSO per well
[5] = tested on: Staphylococci incl. multiresistant MRSA; test: Agar well diffusion; settings: 40 ul of 1 mg/ml in DMSO per well
poliovirus type 1 = format: cell-based; settings: 0.4 mM in 1% DMSO; analysed in the same way as Cystapep 1
virus = test: Anti-viral activity (tables of particularly interesting compounds); format: cell-based; design: key: + indicates that the compound show effects; settings: compounds listed by R4 or R1 residue
[6] = compounds listed by R4 or R1 residue
[7] = peptide analogues and cyclic compounds

CC(C)CC(NC(=O)C(CCCNC(=N)N)NC(=O)OCc1ccccc1)C(=O)NC(CNC(=O)CCl)C(C)C (stereo not drawn) [Chloroacetyl]
Activity Anti-bacterial (bacteria; [6]): +

CC(C)CC(NC(=O)C(CCCNC(=N)N)NC(=O)OCc1ccccc1)C(=O)NC(CNC(=O)C#Cc1ccccc1)C(C)C (stereo not drawn) [Phenylpropiolyl]
Activity Anti-bacterial (bacteria; [6]): +

CC(C)CC(NC(=O)C(CCCNC(=N)N)NC(=O)OCc1ccccc1)C(=O)NC(CNC(=O)C=Cc1ccc(-c2ccccc2)cc1)C(C)C (stereo not drawn) [Compound 4-phenylcinnamoyl]
Activity Anti-bacterial (bacteria; [6]): +

CC(=O)NC(CCCNC(=N)N)C(=O)NC(CC(C)C)C(=O)NC(CNC(=O)/C=C/c1ccccc1)C(C)C (stereo not drawn) [Acetyl]
Activity Anti-bacterial (bacteria; [6]): +

CC(C)CC(NC(=O)C(CCCNC(=N)N)NC(=O)OCc1ccccc1)C(=O)NC(CNC(=O)/C=C/c1ccccc1)Cc1ccccc1 (stereo not drawn) [(Phe^4)Cp1]
antibacterial effect (Streptococcus: group C): +
antibacterial effect (Streptococcus: group A): +
antibacterial effect (S. pneumoniae): +
growth inhibition of MRSA strains (MRSA): strongly inhibited in their growth
antibacterial effect (Streptococcus: group G): +
antibacterial effect [1]: −
antibacterial effect (Streptococcus: group B): +
antibacterial effect [2]: −
effect against HSV-1 [3]: found to have effect
antibacterial effect [4]: +
antibacterial effect [5]: +
effect against polio (poliovirus type 1): found to have effect

CC(=O)N[C@@H](Cc1ccccc1)C(=O)NCC(NC(=O)C(CC(C)C)NC(=O)C(CCCNC(=N)N)NC(=O)OCc1ccccc1)C(C)C (stereo partly drawn) [Acetyl-L-phenylalanoyl]
Activity Anti-bacterial (bacteria; [6]): +
Activity Anti-viral (virus): +

cyclo(FRLVF[Orn]LV)
Activity Anti-bacterial (bacteria; [7]): +

CC(C)CC(NC(=O)C(CCCNC(=N)N)NC(=O)CCCc1ccccc1)C(=O)NC(CNC(=O)/C=C/c1ccccc1)C(C)C (stereo not drawn) [Compound 4-phenylbutyryl]
Activity Anti-bacterial (bacteria; [6]): +

CC(C)CC(NC(=O)C(CCCNC(=N)N)NC(=O)OCc1ccccc1)C(=O)NC(CNC(=O)/C=C/c1ccccc1)C(C)C (stereo not drawn) [Benzyloxtcarbonyl]
Activity Anti-bacterial (bacteria; [6]): +

CC(C)CC(NC(=O)C(CCCNC(=N)N)NC(=O)OCc1ccccc1)C(=O)NC(CNC(=O)CCc1ccccc1)C(C)C (stereo not drawn) [n = 2]
Activity Anti-bacterial (bacteria; [6]): +

cyclo(F[Orn]LVF[Orn]LV)
Activity Anti-bacterial (bacteria; [7]): +

cyclo([dPhg]RLV[dPhg]RLV)
Activity Anti-bacterial (bacteria; [7]): +

cyclo(Phe-Arg-Leu-Val-Phe-Arg-Leu-Val) (FRLVFRLV; cyclic; printed: Phe-Arg-Leu-Val-Phe-Arg-Leu-Val)
Activity Anti-bacterial (bacteria; [7]): +

CC(C)CC(NC(=O)C(CCCNC(=N)N)NC(=O)Cc1ccccc1)C(=O)NC(CNC(=O)/C=C/c1ccccc1)C(C)C (stereo not drawn) [Phenylacetyl]
Activity Anti-bacterial (bacteria; [6]): +

CC(C)CC(NC(=O)C(CCCNC(=N)N)NC(=O)OCc1ccccc1)C(=O)NC(CNC(=O)/C=C/c1ccccc1)C(C)C (stereo not drawn) [trans-cinnamoyl]
Activity Anti-viral (virus): +

Z-Arg-Leu-Val-cinnamoylamide
Activity Anti-bacterial (bacteria; [7]): +

Z-Arg-Leu-Val-Phe-NH2 ({code Z}-RLVF-NH2; reading uncertain; also: printed as Z-Arg-Leu-Val-Phe-NH2)
Activity Anti-bacterial (bacteria; [7]): +

CC(C)CC(NC(=O)C(CCCNC(=N)N)NC(=O)OCc1ccccc1)C(=O)NC(CNC(=O)Cc1ccccc1)C(C)C (stereo not drawn) [n = 1]
Activity Anti-bacterial (bacteria; [6]): +

CC(C)C(CNC(=O)/C=C/c1ccccc1)NC(=O)CNC(=O)C(CCCNC(=N)N)NC(=O)OCc1ccccc1 (stereo not drawn) [(Gly^3)Cp1]
antibacterial effect (Streptococcus: group C): +
growth inhibition of MRSA strains (MRSA): strongly inhibited in their growth
antibacterial effect (Streptococcus: group B): +
antibacterial effect [2]: −
antibacterial effect [4]: +
antibacterial effect [5]: +

CC(C)CC(NC(=O)C(CCCNC(=N)N)NC(=O)OCc1ccccc1)C(=O)NC(CNC(=O)[C@H](Br)Cc1ccccc1)C(C)C (stereo partly drawn) [Compound D-2-bromo-3-phenylpropionyl]
Activity Anti-bacterial (bacteria; [6]): +

CC(C)CC(NC(=O)C(CCCNC(=N)N)NC(=O)OCc1ccccc1)C(=O)NC(CNC(=O)[C@@H](Br)Cc1ccccc1)C(C)C (stereo partly drawn) [Compound L-2-bromo-3-phenylpropionyl]
Activity Anti-bacterial (bacteria; [6]): +

CC(C)CC(NC(=O)C(CCCNC(=N)N)NC(=O)OCc1ccccc1)C(=O)NC(CNC(=O)C=CC=Cc1ccccc1)C(C)C (stereo not drawn) [5-phenylpenta-2,4-dienoyl]
Activity Anti-bacterial (bacteria; [6]): +

CC(C)CC(NC(=O)C(CCCNC(=N)N)NC(=O)CCc1ccccc1)C(=O)NC(CNC(=O)/C=C/c1ccccc1)C(C)C (stereo not drawn) [Compound 3-phenylpropionyl]
Activity Anti-bacterial (bacteria; [6]): +

CC(C)CC(NC(=O)C(CCCNC(=N)N)NC(=O)OCc1ccccc1)C(=O)NC(CNC(=O)/C=C/S(=O)(=O)Cc1ccccc1)C(C)C (stereo not drawn) [trans-3-benzylsulphonylacroyl]
Activity Anti-bacterial (bacteria; [6]): +

CC(C)CC(NC(=O)C(CCCNC(=N)N)NC(=O)OCc1ccccc1)C(=O)NC(CNC(=O)[C@H](O)Cc1ccccc1)C(C)C (stereo partly drawn) [Compound D-2-hydroxy-3-phenylpropionyl]
Activity Anti-bacterial (bacteria; [6]): +

CC(C)CC(NC(=O)C(CCCNC(=N)N)NC(=O)OCc1ccccc1)C(=O)NC(CNC(=O)[C@@H](O)Cc1ccccc1)C(C)C (stereo partly drawn) [Compound L-2-hydroxy-3-phenylpropionyl]
Activity Anti-bacterial (bacteria; [6]): +

C=C(C(=O)NCC(NC(=O)C(CC(C)C)NC(=O)C(CCCNC(=N)N)NC(=O)OCc1ccccc1)C(C)C)c1ccncc1 (stereo not drawn) [2-(4-pyridyl)acroyl]
Activity Anti-bacterial (bacteria; [6]): +

Mpa-Phe-Arg-Leu-Val-Phe-Cys-NH2 ([Mpa]FRLVFC-NH2; cysteine pairing not given here) [footnote: Mpa-Phe indicates 3-phenylpropionyl]
Activity Anti-bacterial (bacteria; [7]): +

CC(C)CC(CNC(=O)/C=C/c1ccccc1)NC(=O)C(CC(C)C)NC(=O)C(CCCNC(=N)N)NC(=O)OCc1ccccc1 (stereo not drawn) [(Leu^4)Cp1]
antibacterial effect (Streptococcus: group C): +
antibacterial effect (Streptococcus: group A): +
antibacterial effect (S. pneumoniae): +
growth inhibition of MRSA strains (MRSA): strongly inhibited in their growth
antibacterial effect (Streptococcus: group G): +
antibacterial effect [1]: −
antibacterial effect (Streptococcus: group B): +
antibacterial effect [2]: −
effect against HSV-1 [3]: found to have effect
antibacterial effect [4]: +
antibacterial effect [5]: +
effect against polio (poliovirus type 1): found to have effect

cyclo([Phg]RLV[Phg]RLV)
Activity Anti-bacterial (bacteria; [7]): +

cyclo(Tyr-Arg-Leu-Val-Tyr-Arg-Leu-Val) (YRLVYRLV; cyclic; printed: Tyr-Arg-Leu-Val-Tyr-Arg-Leu-Val)
Activity Anti-bacterial (bacteria; [7]): +

CC(C)CC(NC(=O)C(CCCNC(=N)N)NC(=O)OCc1ccccc1)C(=O)NC(CNC(=O)/C=C/Cc1ccccc1)C(C)C (stereo not drawn) [trans-3-benzylacroyl]
Activity Anti-bacterial (bacteria; [6]): +

cyclo(D-Tyr-Arg-Leu-Val-D-Tyr-Arg-Leu-Val) (chain 1 [dY]RLV; chain 2 [dY]RLV; also: two chains joined into one cyclic octapeptide, head-to-tail to a chain's N/C-terminus)
Activity Anti-bacterial (bacteria; [7]): +

CC(=O)N[C@H](Cc1ccccc1)C(=O)NCC(NC(=O)C(CC(C)C)NC(=O)C(CCCNC(=N)N)NC(=O)OCc1ccccc1)C(C)C (stereo partly drawn) [Acetyl-D-phenylalanoyl]
Activity Anti-bacterial (bacteria; [6]): +
Activity Anti-viral (virus): +
